Test results published in ChEMBL document CHEMBL5291721, “A preclinical secondary pharmacology resource illuminates target-adverse drug reaction associations of marketed drugs” (Nat Commun, 2023).

Experiments:
[1] = molecular target: T1, Muscarinic acetylcholine receptor M1 (Homo sapiens, UniProt P11229); assay type: functional, cell-based
T1 sequence (P11229 whole entry): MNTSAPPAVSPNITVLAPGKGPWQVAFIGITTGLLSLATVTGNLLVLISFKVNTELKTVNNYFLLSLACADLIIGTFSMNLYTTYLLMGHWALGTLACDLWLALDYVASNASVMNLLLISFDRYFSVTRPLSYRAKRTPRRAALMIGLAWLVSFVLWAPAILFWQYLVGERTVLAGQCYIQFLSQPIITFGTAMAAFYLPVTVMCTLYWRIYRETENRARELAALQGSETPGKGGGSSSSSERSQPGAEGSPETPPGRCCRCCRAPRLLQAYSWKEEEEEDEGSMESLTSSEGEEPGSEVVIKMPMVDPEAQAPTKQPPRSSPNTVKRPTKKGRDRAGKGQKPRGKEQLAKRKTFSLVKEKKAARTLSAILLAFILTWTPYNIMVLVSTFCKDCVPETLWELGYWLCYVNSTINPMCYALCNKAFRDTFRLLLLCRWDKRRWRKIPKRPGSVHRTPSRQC

[2] = molecular target: T2, Sodium-dependent noradrenaline transporter (Homo sapiens, UniProt P23975)
T2 sequence (P23975 whole entry): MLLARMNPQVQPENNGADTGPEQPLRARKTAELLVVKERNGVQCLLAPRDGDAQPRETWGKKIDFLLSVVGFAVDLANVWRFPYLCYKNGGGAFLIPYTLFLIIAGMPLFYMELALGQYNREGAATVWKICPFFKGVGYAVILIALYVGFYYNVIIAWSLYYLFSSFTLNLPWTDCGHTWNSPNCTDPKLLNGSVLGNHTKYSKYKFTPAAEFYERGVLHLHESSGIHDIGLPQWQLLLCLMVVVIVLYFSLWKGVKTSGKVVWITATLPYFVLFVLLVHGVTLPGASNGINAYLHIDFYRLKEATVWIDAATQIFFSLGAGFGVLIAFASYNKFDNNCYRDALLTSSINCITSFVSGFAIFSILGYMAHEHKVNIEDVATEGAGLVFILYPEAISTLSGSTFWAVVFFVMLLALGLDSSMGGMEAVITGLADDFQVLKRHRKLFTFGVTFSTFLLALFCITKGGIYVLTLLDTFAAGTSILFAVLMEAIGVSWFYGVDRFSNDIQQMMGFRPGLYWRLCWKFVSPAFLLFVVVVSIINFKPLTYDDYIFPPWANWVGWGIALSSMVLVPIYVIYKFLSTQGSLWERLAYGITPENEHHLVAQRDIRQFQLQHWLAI

[3] = molecular target: Gamma-aminobutyric acid receptor subunit alpha-1 (Rattus norvegicus, UniProt P62813)
Gamma-aminobutyric acid receptor subunit alpha-1, sequence (P62813 whole entry): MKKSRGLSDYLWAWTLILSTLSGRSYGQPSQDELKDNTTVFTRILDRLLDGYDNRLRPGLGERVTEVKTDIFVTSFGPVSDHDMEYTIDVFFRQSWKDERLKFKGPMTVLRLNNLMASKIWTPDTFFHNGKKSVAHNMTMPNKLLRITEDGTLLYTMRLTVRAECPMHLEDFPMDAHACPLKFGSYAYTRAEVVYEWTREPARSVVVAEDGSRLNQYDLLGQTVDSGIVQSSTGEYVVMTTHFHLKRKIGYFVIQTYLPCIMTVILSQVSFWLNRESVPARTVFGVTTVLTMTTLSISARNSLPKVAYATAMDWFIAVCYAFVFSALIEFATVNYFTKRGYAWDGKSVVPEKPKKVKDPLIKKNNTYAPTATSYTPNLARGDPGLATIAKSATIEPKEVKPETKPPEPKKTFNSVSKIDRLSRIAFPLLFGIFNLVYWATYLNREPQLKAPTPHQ

Androgen receptor = molecular target: T3, Androgen receptor (Homo sapiens, UniProt P10275)
T3 sequence (P10275 whole entry): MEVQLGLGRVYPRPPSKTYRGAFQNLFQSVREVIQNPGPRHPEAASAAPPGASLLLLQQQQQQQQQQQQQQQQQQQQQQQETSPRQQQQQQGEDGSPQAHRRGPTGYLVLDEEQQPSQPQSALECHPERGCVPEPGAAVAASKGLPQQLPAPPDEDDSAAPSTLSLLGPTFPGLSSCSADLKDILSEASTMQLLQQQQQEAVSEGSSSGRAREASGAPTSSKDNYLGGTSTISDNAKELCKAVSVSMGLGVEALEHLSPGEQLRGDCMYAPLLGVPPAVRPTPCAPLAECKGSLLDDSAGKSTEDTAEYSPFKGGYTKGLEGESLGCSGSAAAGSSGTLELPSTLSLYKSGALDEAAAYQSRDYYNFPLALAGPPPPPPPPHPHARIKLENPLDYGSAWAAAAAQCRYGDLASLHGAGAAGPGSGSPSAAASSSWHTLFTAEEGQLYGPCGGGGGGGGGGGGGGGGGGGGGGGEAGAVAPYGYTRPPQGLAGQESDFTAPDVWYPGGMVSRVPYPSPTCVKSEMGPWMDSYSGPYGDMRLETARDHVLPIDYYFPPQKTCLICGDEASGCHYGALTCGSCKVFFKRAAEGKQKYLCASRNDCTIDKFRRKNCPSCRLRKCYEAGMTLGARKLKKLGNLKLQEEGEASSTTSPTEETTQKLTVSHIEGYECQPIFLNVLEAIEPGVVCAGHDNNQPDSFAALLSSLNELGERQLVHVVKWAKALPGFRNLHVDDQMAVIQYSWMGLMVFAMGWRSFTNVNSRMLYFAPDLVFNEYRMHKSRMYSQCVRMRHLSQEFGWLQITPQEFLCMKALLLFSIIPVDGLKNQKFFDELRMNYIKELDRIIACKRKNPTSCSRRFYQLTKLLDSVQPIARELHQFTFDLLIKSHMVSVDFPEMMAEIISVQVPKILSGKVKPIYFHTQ

[4] = molecular target: T2, Sodium-dependent noradrenaline transporter; remark: listed apart in the source
[5] = molecular target: T4, Alpha-1A adrenergic receptor (Homo sapiens, UniProt P35348); assay type: functional, cell-based
T4 sequence (P35348 whole entry): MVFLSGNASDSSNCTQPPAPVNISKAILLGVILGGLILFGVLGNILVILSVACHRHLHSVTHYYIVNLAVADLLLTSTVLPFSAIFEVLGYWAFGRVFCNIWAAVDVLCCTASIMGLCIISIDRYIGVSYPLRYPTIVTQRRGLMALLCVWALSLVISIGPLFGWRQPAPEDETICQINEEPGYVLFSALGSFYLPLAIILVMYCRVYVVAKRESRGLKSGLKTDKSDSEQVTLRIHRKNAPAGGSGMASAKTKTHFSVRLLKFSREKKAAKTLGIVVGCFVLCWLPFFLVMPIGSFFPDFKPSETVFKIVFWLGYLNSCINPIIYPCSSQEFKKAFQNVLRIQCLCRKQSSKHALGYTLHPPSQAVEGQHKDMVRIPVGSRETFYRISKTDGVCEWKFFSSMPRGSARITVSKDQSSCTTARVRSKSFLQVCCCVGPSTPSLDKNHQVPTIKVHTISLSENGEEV

[6] = molecular target: T5, 5-hydroxytryptamine receptor 1A (Homo sapiens, UniProt P08908); assay type: functional, cell-based
T5 sequence (P08908 whole entry): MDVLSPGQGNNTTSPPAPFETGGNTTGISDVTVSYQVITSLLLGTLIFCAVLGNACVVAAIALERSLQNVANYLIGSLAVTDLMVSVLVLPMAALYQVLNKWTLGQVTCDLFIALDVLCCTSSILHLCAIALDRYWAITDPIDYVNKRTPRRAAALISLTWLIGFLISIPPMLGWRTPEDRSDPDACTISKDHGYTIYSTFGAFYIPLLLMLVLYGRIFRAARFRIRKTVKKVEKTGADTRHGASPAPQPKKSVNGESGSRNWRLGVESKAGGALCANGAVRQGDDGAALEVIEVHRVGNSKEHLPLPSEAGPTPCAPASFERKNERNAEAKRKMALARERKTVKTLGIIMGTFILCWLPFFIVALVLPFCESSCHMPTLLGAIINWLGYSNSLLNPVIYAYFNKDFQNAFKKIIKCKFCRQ

[7] = molecular target: T6, Alpha-2A adrenergic receptor (Homo sapiens, UniProt P08913); assay type: functional, cell-based
T6 sequence (P08913 whole entry): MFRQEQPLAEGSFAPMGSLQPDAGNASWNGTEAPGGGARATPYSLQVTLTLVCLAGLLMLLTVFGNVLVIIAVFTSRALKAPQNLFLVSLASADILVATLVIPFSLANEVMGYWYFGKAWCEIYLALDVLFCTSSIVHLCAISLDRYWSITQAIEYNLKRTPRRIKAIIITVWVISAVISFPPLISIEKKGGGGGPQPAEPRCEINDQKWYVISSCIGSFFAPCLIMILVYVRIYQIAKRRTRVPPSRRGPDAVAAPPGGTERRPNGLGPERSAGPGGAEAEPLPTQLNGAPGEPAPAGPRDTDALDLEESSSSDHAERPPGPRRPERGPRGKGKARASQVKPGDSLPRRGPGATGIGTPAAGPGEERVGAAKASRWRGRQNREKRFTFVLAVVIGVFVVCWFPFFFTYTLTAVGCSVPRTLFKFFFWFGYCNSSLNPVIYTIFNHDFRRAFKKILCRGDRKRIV

[8] = molecular target: T6, Alpha-2A adrenergic receptor; assay type: functional, cell-based; remark: listed apart in the source
Note: assay procedure not described here.

SMILES | AC50 [1] [µM] | AC50 [2] [µM] | AC50 [3] [µM] | AC50 (Androgen receptor) [µM] | AC50 [4] [µM] | AC50 [5] [µM] | AC50 [6] [µM] | AC50 [7] [µM] | AC50 [8] [µM]
Cc1cc2c(cc1S(N)(=O)=O)S(=O)(=O)CCC2 | > 30 | > 30 | > 30 |  |  |  |  |  | 
C[C@H](N[C@@H](CCc1ccccc1)C(=O)O)C(=O)N1Cc2ccccc2C[C@H]1C(=O)O | > 30 | > 30 | > 30 | > 30 |  |  |  |  | 
O=C(O)[C@@H]1C[C@@H](O)CN1 | > 30 | > 30 | > 30 | > 30 |  |  |  |  | 
CC1(C)S[C@@H]2[C@H](/N=C/N3CCCCCC3)C(=O)N2[C@H]1C(=O)O [AMDINOCILLIN] | > 30 | > 30 | > 30 |  |  |  |  |  | 
CC(=O)[C@]1(N)Cc2c(O)c3c(c(O)c2[C@@H](O[C@H]2C[C@H](O)[C@H](O)CO2)C1)C(=O)c1ccccc1C3=O [AMRUBICIN] | 18.4 | > 30 | > 30 | > 30 |  |  |  |  | 
NC(=O)[C@@H]1CC[C@@H]2CN1C(=O)N2OS(=O)(=O)O [AVIBACTAM] | > 30 | > 30 |  | > 30 |  |  |  |  | 
CC(=O)OC[C@H]1O[C@@H](n2ncc(=O)[nH]c2=O)[C@H](OC(C)=O)[C@@H]1OC(C)=O [AZARIBINE] |  | > 30 | > 30 | > 30 |  |  |  |  | 
O=C(/C=C/c1cccc(S(=O)(=O)Nc2ccccc2)c1)NO [BELINOSTAT] |  | > 30 | > 30 | > 30 | > 10 |  |  |  | 
CC(O)(CS(=O)(=O)c1ccc(F)cc1)C(=O)Nc1ccc(C#N)c(C(F)(F)F)c1 (stereo not given) [BICALUTAMIDE] |  | > 30 | > 30 |  | > 30 | > 30 | > 10 | > 10 | > 10
NC[C@H]1CC[C@H](C(=O)Oc2ccc(CCC(=O)O)cc2)CC1 [CETRAXATE] |  | > 30 | > 30 |  |  | > 30 | > 30 | > 30 | > 30
Cc1ncc2c(c1O)COC2c1ccc(Cl)cc1 (stereo not given) [CICLETANINE] | > 30 | > 30 |  | > 30 |  |  |  |  | 
Cc1cn([C@H]2O[C@@H](CO)[C@H](O)[C@H]2F)c(=O)[nH]c1=O [CLEVUDINE] | > 30 | > 30 | > 30 |  |  |  |  |  | 
CC(=O)O[C@]1(C(C)=O)CC[C@H]2[C@@H]3C=C(Cl)C4=CC(=O)[C@@H]5C[C@@H]5[C@]4(C)[C@H]3CC[C@@]21C [CYPROTERONE ACETATE] |  | > 30 | > 30 |  | > 30 |  |  |  | 
CC(=O)[C@H]1CC[C@H]2[C@@H]3C=CC4=CC(=O)CC[C@@]4(C)[C@@H]3CC[C@]12C [DYDROGESTERONE] | > 30 | > 30 | > 30 |  |  |  |  |  | 
CC(=O)O[C@H]1Cc2ccccc2N(C(N)=O)c2ccccc21 [ESLICARBAZEPINE ACETATE] | > 30 | > 30 |  | > 30 |  |  |  |  | 
CC(O)(P(=O)(O)O)P(=O)(O)O [ETIDRONIC ACID] |  | > 30 | > 30 |  |  |  |  |  | 

SMILES | AC50 [1] [µM] | AC50 [2] [µM] | AC50 [3] [µM] | AC50 (Androgen receptor) [µM] | AC50 [4] [µM] | AC50 [5] [µM] | AC50 [6] [µM] | AC50 [7] [µM] | AC50 [8] [µM]
Cc1ccc(S(=O)(=O)NC(=O)NC2CCCCC2)cc1 [GLYCYCLAMIDE] | > 30 | > 30 | > 30 |  |  |  |  |  | 
CC(=O)OCC(=O)[C@@]1(O)CC[C@H]2[C@@H]3CCC4=CC(=O)CC[C@]4(C)[C@H]3[C@@H](O)C[C@@]21C [HYDROCORTISONE ACETATE] | > 30 | > 30 | > 30 |  |  |  |  |  | 
CC(COc1ccccc1)NC(C)C(O)c1ccc(O)cc1 (stereo not given) [ISOXSUPRINE] | > 30 | 11.2 | > 30 |  |  |  |  |  | 
COc1ccc(OC)c(C(O)C(C)N)c1 (stereo not given) [METHOXAMINE] | > 30 | > 30 |  | > 30 |  |  |  |  | 
CC1(CCN2CCCCC2)C(=O)CCc2ccccc21 (stereo not given) [NEPINALONE] | > 30 | > 30 |  | > 30 |  |  |  |  | 
COc1cccc(C(=O)CCN[C@@H](C)[C@H](O)c2ccccc2)c1 [OXYFEDRINE] | > 30 | 2.65 |  | > 30 |  |  |  |  | 
CC[N+](C)(CC)CCOC(=O)C(O)(c1ccccc1)C1CCCCC1 (stereo not given) [OXYPHENONIUM] | > 30 | > 30 |  |  |  |  |  |  | 
CCC[C@H](N[C@@H](C)C(=O)N1[C@H](C(=O)O)C[C@@H]2CCCC[C@@H]21)C(=O)OCC [PERINDOPRIL] | > 30 | > 30 | > 30 |  |  |  |  |  | 
NNCCc1ccccc1 [PHENELZINE] |  | 10.8 | > 30 |  |  |  |  |  | 
N[C@@H](Cc1ccccc1)C(=O)O [PHENYLALANINE] | > 30 | > 30 | > 30 |  |  |  |  |  | 
Clc1ccc(C(Cn2ccnc2)OCc2csc3c(Cl)cccc23)c(Cl)c1 (stereo not given) [SERTACONAZOLE] | > 30 | 3.3 |  | 0.0201 |  |  |  |  | 
CC(OCCN1CCCCCC1)(c1ccccc1)c1ccc(Cl)cc1 (stereo not given) [SETASTINE] | > 30 | 5.82 |  | > 30 |  |  |  |  | 
O=S1(=O)CCN(CN2CCS(=O)(=O)NC2)CN1 [TAUROLIDINE] |  | > 30 | > 30 | > 30 | > 30 | > 30 | > 30 | > 30 | > 30
c1ccc2c(SC3=NCCN3)c[nH]c2c1 [TINAZOLINE] | > 30 | 5.56 |  | > 30 |  |  |  |  | 
COc1ccc2c(C(=S)N(C)CC(=O)O)cccc2c1C(F)(F)F [TOLRESTAT] |  | > 30 | > 30 |  |  |  |  |  | 
